Measurements as given in patent US20100216718A1, “Cancer Classification and Methods of Use” (priority 2007, published 2010).

Key:
[1] = target: T1, PDGFRα (Homo sapiens, UniProt P16234); assay: Western blot of PDGFRα phosphorylation in H1703 cells; type: cell-based
T1 construct: PDGFRα expression is highly restricted to H1703 cell line; endogenous in cells; host or cells: H1703 human NSCLC cell line (ATCC)
Experimental: (§1) We dissolved drugs (Iressa and Gleevec) in DMSO to yield 10 mM stock solution and stored at −20° C.

[2] = test system: SHP2; assay: Western analysis with site and phosphorylation-specific antibodies, SHP2; type: cell-based, human; details: H1703 cells, 1 μM for 3 hours, western (FIG. 9E)
Experimental: as §1

[3] = test system: H1703 cells; assay: Cell growth inhibition assay (MTT/MTS), H1703; type: cell-based, human; details: 72 hr (FIG. 5C)
Experimental: Briefly, we seeded 1000 to 5000 cells onto flat-bottomed 96-well plates and grew them in complete medium with 10% FBS. After 24 hours, we changed the cell medium to 100 μl complete growth medium with 10% FBS containing various concentrations of Gleevec, and incubated the cells for an additional 72 hours. We applied each drug concentration to triplicate well of cells. At the end of the incubation, we added 20 μl of CellTiter 96 AQUESOUS One solution to each well, and incubated the plate for 1-4 hours. We read absorbance at 490 nm using a Titan Multiskan Ascent microplate reader (Titertek Instrument). We expressed growth inhibition as mean±SD value of percentage of absorbance reading from treated cells vs untreated cells. We repeated the assay at least three times. We calculated IC50 with the use of OriginPro 6.1 software (OriginLab, Northampton, Mass.).

[4] = test system: A549 cells; details: previous report (Zhang et al. 2003); cited from earlier work
[5] = test system: PLCγ1; assay: Western analysis with site and phosphorylation-specific antibodies, PLCγ1; type: cell-based, human; details: H1703 cells, 1 μM for 3 hours, western (FIG. 9E)
Experimental: as §1

[6] = test system: Stat3; assay: Western analysis with site and phosphorylation-specific antibodies, Stat3; type: cell-based, human; details: H1703 cells, 1 μM for 3 hours, western (FIG. 9E)
Experimental: as §1

[7] = test system: Akt (Ser473); assay: Western blot of Akt phosphorylation in H1703 cells; type: cell-based, human; details: for phosphorylation of Akt at Ser473: treated for 1 hr, western blot (FIG. 5B)
Experimental: as §1

[8] = test system: p44/42MAPK; assay: Western blot of p44/42MAPK phosphorylation in H1703 cells; type: cell-based, human; details: 100 nM Imatinib, 1 hour (FIG. 9B)
Experimental: as §1

[9] = test system: H1703 xenograft; assay: H1703 mouse xenograft; type: in vivo, NCR nude mice
Experimental: We purchased four to six weeks female NCR nude mice from Taconic ande used them to generate H1703 xenograft. We carried out experiments under an IACUC approved protocol. We followed institutional guidelines for the proper and humane use of animals in research. We generated tumors by injecting 10 mice with 5×10^6H1703 cells and reconstituted basement membrane Matrigel (BD Biosciences) with 1:1 ratio in PBS. Drug treatment started when the tumor was about 1 mm×1 mm size. 5 mice were treated with Gleevec at 50 mg/kg/day by oral gavage using a ball ended feeding needle. 5 mice were untreated. […] We measured the average tumor diameter using caliper in both control and treated groups of mice.

[10] = test system: phosphotyrosine signaling in H1703 cells; assay: SILAC LC-MS/MS phosphotyrosine analysis of H1703 cells; type: cell-based, human; details: 1 μM Gleevec for 3 hours
Source text: We performed phosphopeptide immunoprecipitation from different cell lines as described previously (Rush, J., Moritz, A., Lee, K. A., Guo, A., Goss, V. L., Spek, E. J., Zhang, H., Zha, X. M., Polakiewicz, R. D., and Comb, M. J. (2005). Immunoaffinity profiling of tyrosine phosphorylation in cancer cells. Nat. Biotechnol. 23, 94-101) using the PhosphoScan Kit (P-Tyr-100) from CST.
We split equal number of H1703 cells and grew them in either light or heavy SILAC medium (RPMI medium lacking arginine and lysine supplemented with either regular L-Lysine:HCl and L-Arginine:HCL (Sigma) for light medium, or supplemented with L-arginine:HCl (U-13 C6,98%) and L-lysine:2HCl (U-13C6,98%; U-15N2,98%) (Cambridge Isotope Laboratories) for heavy medium. The medium also contained 10% FBS, and penicillin/streptomycin. We grew cells for at least five generations to reach 100 million cells in each medium type. We then treated cells grown in the heavy medium with 1 μM Gleevec for 3 hours. We lysed both treated and control cells in Urea lysis buffer and combined them for phosphopeptide immunoprecipitation experiment as described above.
We LC-MS analyzed each phosphopeptide sample in duplicate. We packed a fused silica microcapillary column (125 μm×18 cm) with C18 reverse-phase resin (Magic C18AQ, 5 μm particles, 200 Å pore size, Michrom Bioresources, Auburn, Calif.). We loaded samples (4 μL) onto this column with an autosampler (LC Packings Famos, San Francisco, Calif.) and eluted them into the mass spectrometer by a 55-min linear gradient of 7 to 30% acetonitrile in 0.1% formic acid. We delivered the gradient at approximately 600 nl/min using a binary HPLC pump (Agilent 1100, Palo Alto, Calif.) with an in-line flow splitter. We mass analyzed eluting peptide ions with a hybrid linear ion trap-7 Tesla ion cyclotron resonance Fourier transform instrument (LTQ-FT, Thermo Electron, San Jose, Calif.). We employed a top-seven method, whereby we collected 7 data-dependent MS/MS scans in the linear ion trap based on measurements made during the previous MS survey scan in the ICR cell, with the linear ion trap and the Fourier transform instrument operating concurrently. We performed MS scans at 375-1800 m/z with an automatic gain control (AGC) target of 3×10^6 and a mass resolution of 10^5. For MS/MS the AGC was 4000, the dynamic exclusion time was 25 s, and singly-charged ions were rejected by charge-state screening.
We assigned peptide sequences to MS/MS spectra using Sequest software (v.27, rev.12) and a composite forward/reverse IPI human protein database. Search parameters were: trypsin as protease; 1.08 Da precursor mass tolerance; static modification on cysteine (+57.02146, carboxamidomethylation); and dynamic modifications on serine, threonine and tyrosine (+79.96633 Da, phosphorylation), lysine (+8.01420, ^13C6 ^15N2), arginine (+6.02013, ^13C6) and methionine (+15.99491, oxidation). We used a target/decoy database approach to establish appropriate score-filtering criteria such that the estimated false-positive assignment rate was <1%. In addition to exceeding charge-dependent XCorr thresholds (for z=2, XCorr≧2.2; for z=3, XCorr≧3.3; for z=4, XCorr≧3.5), we required assignments to contain phosphotyrosine, to have a mass accuracy of −5 to +25 ppm, and to contain either all-light or all-heavy lysine/arginine residues. We further evaluated assignments passing these criteria using a custom quantification program Vista (Bakalarski, C. E., Elias, J. E., Villen, J. Haas, W., Gerber, S. A., Everley, P. A., and Gygi, S. P. (2008) The Impact of Peptide Abundance and Dynamic Range on Stable-Isotope-Based Quantitative Proteomic Analyses. J. Proteome Res. 10.1021/pr800333e) to calculate peak areas and ultimately a relative abundance between heavy and light forms of each peptide.

[11] = 100 nM Imatinib, 1 hour (FIG. 9B)
[12] = indicated amounts of Imatinib mesylate, 1 hour (FIG. 9B)

T1 sequence (P16234 24-1089): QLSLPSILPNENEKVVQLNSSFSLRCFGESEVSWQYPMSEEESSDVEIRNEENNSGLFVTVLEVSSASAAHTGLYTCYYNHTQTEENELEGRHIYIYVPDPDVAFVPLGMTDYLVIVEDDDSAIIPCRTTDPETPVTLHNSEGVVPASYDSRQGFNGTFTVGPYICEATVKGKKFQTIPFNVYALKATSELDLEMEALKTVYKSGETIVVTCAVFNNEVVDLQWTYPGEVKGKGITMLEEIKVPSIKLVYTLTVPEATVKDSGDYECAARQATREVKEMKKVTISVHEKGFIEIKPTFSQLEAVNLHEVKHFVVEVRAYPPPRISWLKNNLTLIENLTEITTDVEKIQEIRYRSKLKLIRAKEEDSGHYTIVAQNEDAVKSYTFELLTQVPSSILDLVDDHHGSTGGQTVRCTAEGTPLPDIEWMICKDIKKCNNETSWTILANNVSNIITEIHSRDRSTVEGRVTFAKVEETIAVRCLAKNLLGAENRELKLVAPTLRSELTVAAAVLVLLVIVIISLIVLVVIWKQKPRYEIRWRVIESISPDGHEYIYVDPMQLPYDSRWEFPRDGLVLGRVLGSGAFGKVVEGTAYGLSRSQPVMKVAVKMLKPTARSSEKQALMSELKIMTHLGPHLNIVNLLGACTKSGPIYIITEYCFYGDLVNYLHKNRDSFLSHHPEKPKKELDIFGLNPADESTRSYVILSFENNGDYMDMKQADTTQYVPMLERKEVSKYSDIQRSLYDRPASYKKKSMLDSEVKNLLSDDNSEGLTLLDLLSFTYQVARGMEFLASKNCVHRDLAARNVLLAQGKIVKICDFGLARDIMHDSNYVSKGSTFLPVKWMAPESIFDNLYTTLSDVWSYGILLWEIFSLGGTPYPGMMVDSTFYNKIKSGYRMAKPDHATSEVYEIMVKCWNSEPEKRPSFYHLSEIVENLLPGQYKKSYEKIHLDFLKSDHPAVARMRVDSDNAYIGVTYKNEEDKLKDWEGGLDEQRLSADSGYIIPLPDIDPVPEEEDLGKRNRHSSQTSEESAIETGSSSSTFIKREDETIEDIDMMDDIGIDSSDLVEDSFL

Question: Which PDGFRα phosphorylation [1, 11] does the source give for `Cc1ccc(NC(=O)c2ccc(CN3CCN(C)CC3)cc2)cc1Nc1nccc(-c2cccnc2)n1` [Imatinib] here?
Answer: Its PDGFRα phosphorylation is “almost complete inhibition”.

Question: And the “phosphorylation of PDGFRα” value ([1]; 1 μM for 3 hours, western (FIG. 9E))?
Answer: The value was “decreased phosphorylation”.

Question: What about the “PDGFR α phosphorylation (Tyr754)” value [1, 12] of the same compound?
Answer: Its value is “dose-dependent inhibition”.

Question: What about the “phosphorylation of SHP2” value [2] of the same compound?
Answer: Its value is “decreased phosphorylation”.

Question: And the “cell growth / sensitivity to Imatinib” value [3]?
Answer: The value was “sensitivity profile similar to K562 cells”.

Question: And the “cell growth / sensitivity to Imatinib” value ([3]; listed as Imatinib mesylate)?
Answer: Its value is “inhibits cell growth”.

Question: And the “sensitivity to Imatinib” value [4]?
Answer: Its value is “showed sensitivity”.

Question: And the “phosphorylation of PLCγ1” value [5]?
Answer: The value was “decreased phosphorylation”.

Question: What about the “phosphorylation of Stat3” value [6] of the same compound?
Answer: Its value is “not changed”.

Question: What about the Akt phosphorylation [7, 11] of the same compound?
Answer: Its Akt phosphorylation is “almost complete inhibition”.

Question: What about the “Akt phosphorylation (Ser473)” value [7, 12] of the same compound?
Answer: Its value is “dose-dependent inhibition”.

Question: And the “phosphorylation of Akt at Ser473” value [7]?
Answer: The value was “blocked”.

Question: What about the p44/42MAPK phosphorylation [8] of the same compound?
Answer: Its p44/42MAPK phosphorylation is “little if any effect”.

Question: And the tumor growth ([9]; H1703 xenograft in nude mice, 50 mg/kg daily, 2 week period, vs vehicle)?
Answer: The tumor growth was “immediate and profound effects on tumor growth”.

Question: And the tumor growth ([9]; H1703 xenograft, after 7 days of Imatinib treatment at 50 mg/kg (FIG. 9F))?
Answer: The tumor growth was “blocks tumor growth”.

Question: And the “phosphorylation of SMS2” value [10]?
Answer: Its value is “inhibited phosphorylation”.

Question: And the “phosphorylation of the ras effector Rinl” value [10]?
Answer: Its value is “inhibited phosphorylation”.

Question: And the “tyrosine phosphorylation of SHP-2” value [10]?
Answer: Its value is “suppressed tyrosine phosphorylation”.

Question: What about the “tyrosine phosphorylation of Stat5” value [10] of the same compound?
Answer: Its value is “suppressed tyrosine phosphorylation”.

Question: And the “tyrosine phosphorylation of phospholipase Cg 1” value [10]?
Answer: Its value is “suppressed tyrosine phosphorylation”.

Question: What about the “tyrosine phosphorylation of proteins regulating the cytoskeleton and actin reorganization and signaling molecules involved in membrane recycling and endocytosis” value [10] of the same compound?
Answer: The value was “suppressed”.

Question: What about the “tyrosine phosphorylation of the regulatory subunit of PI3K” value [10] of the same compound?
Answer: Its value is “suppressed tyrosine phosphorylation”.

Question: Which “phosphorylation of Akt at Ser473” value [7] does the source give for `COc1cc2ncnc(Nc3ccc(F)c(Cl)c3)c2cc1OCCCN1CCOCC1` [Gefitinib] here?
Answer: Its value is “not by Gefitinib”.
